# Reference: US10854312B2, “Selective peptide antagonists” (BIONIZ, LLC, priority 2013, dated 2020)
# Entries after “also recorded” stand apart in the source; their conditions may differ. No end group written: not given here.
# Assays:
# Format in all cases: cell-based
# mouse IL-3 = mouse IL-3 (Mus musculus, UniProt P01586); experiment: PT-18β proliferation assay (3H-thymidine), non-γc cytokine IL-3; details: 1 nM mouse IL-3, 15 μM BNZ132-1
# mouse GM-CSF = mouse GM-CSF (Mus musculus, UniProt P01587); experiment: PT-18β proliferation assay (3H-thymidine), non-γc cytokine GM-CSF; details: 1 nM mouse GM-CSF, 15 μM BNZ132-1
# human Flt-3 ligand = human Flt-3 ligand (Homo sapiens, UniProt P49771); experiment: PT-18β proliferation assay (3H-thymidine), non-γc cytokine Flt-3 ligand; details: 1 nM human Flt-3 ligand, 15 μM BNZ132-1
# [1] = tested on: IL-2/IL-15-induced proliferation of ex vivo human T-lymphocytes
# Procedure: FIG. 7A, and FIG. 7B present effective inhibition of a combined function of target γc-cytokines by BNZ132-1. […] Human Peripheral T cells were prepared as described in the methodology section. Four hundred thousand cells (in 200 μl culture) were incubated with the cytokines and BNZ132-1 at the indicated concentrations for 24 h, and cellular proliferation was determined by the […] using the WST-1 reagent (Clontech). The Y-axis represents the OD450 values. The p values; 1 nM cytokine combination—No inhibition vs. anti-IL-2; 0.33, No inhibition vs. anti-IL-15; 0.13, No inhibition vs. anti IL-2+IL-15; 0.003. No inhibition vs. BNZ132-1; 0.021. 0.1 nM cytokine combination—No inhibition vs. anti-IL-2; 0.046, No inhibition vs. anti-IL-15; 0.057, No inhibition vs. anti IL-2+IL-15; 0.001, No inhibition vs. anti IL-2+15; 0.001, No inhibition vs.BNZ132-1; 0.001. The assay was performed in triplicate. […] Peripheral blood mononuclear cells were purified from the blood of a HAM-TSP patient and set up for a spontaneous proliferation assay as previously described36. The cellular proliferation was measured by the thymidine incorporation assay. The Y-axis represents the cpm values. Doses are on the X-axis; BNZ132-1, 3 and 0.3 μM. […] After 12 h incubation, OD450 was measured. […] Absorbance at 450 nm was read at 6 h after the addition of the WST-1 dye. […]
# mouse IL-9 signal = experiment: Western blot of phosphorylation downstream of IL-9 in PT-18 cells; details: 1 nM mouse IL-9, excess dose of BNZ132-1, 15 min
# Procedure: PT-18 cells32 were fasted of IL-3 for 12 h prior to stimulation. Cells were stimulated with 1 nM mouse IL-4 or mouse IL-9 in the presence or absence of excess dose of BNZ132-1 ([…]) for 15 min and then cellular proteins were extracted. Phosphorylation of the indicated proteins was detected using phosphor-specific antibodies (Cell signaling), followed by ECL. IL-4 is the only γc-cytokine that induces the phosphorylation of STAT6. Note that only IL-4, but not IL-9, induced the tyrosine-phosphorylation of STAT6. […] Lanes: 1. no stimulation, 2. IL-4, 3. IL-4+BNZ132-1, 4. IL-9, 5. IL-9+BNZ132-1
# Sequence of mouse GM-CSF (P01587 18-141): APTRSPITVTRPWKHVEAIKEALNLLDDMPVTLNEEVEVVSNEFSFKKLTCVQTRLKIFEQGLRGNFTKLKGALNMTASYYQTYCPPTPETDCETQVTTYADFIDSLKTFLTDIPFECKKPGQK
# Sequence of human Flt-3 ligand (P49771 27-235): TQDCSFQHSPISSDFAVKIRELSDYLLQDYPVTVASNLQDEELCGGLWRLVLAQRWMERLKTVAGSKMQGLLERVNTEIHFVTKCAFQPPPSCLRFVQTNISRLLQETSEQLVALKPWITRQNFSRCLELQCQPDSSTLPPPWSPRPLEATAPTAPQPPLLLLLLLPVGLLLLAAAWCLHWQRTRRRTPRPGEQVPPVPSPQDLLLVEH
sequence,measurement,setting,value
IKEFLQRFIHIVQSIINTS [BNZ132-1],inhibition of IL-3-induced proliferation of PT-18β cells,mouse IL-3,did not inhibit; also recorded: no inhibition; also recorded: no inhibition of non-γc cytokines
same,inhibition of GM-CSF-induced proliferation of PT-18β cells,mouse GM-CSF,did not inhibit; also recorded: no inhibition; also recorded: no inhibition of non-γc cytokines
same,inhibition of Flt3-L-induced proliferation of PT-18β cells,human Flt-3 ligand,did not inhibit; also recorded: no inhibition; also recorded: no inhibition of non-γc cytokines
same,IC50,[1],0.15 µM
same,"inhibition of IL-9 signal (phosphorylation, STAT5)",mouse IL-9 signal,comprehensively inhibited
